28 compounds from patent US10766903B2 (ALMAC DISCOVERY LIMITED, priority 2016, dated 2020) can be followed below.

Structures are written as SMILES. Where two headings read alike, the source gives them in different places.

For this test, the target named is USP7 (Homo sapiens (Human), UniProt Q93009). Put plainly: USP7 fluorescence polarisation (FP) biochemical assay, ubiquitin-Lys-TAMRA substrate. As to conditions: average of at least duplicate experiments. The method, boiled down: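 Full-length His6-USP7 (2.5 nM) incubated ± inhibitor (8-point dilutions, 200 to 0.1 μM before addition) in 50 mM HEPES pH 7.2, 150 mM NaCl, 0.5 mM EDTA, 5 mM DTT, 0.05% BSA, 0.05% CHAPS. Ubiquitin-Lys-TAMRA cleavage followed by FP (ex 530/em 575 nm) every 15 min for 1.5 h; normalised to no-compound control.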
USP7, sequence (Q93009 whole entry): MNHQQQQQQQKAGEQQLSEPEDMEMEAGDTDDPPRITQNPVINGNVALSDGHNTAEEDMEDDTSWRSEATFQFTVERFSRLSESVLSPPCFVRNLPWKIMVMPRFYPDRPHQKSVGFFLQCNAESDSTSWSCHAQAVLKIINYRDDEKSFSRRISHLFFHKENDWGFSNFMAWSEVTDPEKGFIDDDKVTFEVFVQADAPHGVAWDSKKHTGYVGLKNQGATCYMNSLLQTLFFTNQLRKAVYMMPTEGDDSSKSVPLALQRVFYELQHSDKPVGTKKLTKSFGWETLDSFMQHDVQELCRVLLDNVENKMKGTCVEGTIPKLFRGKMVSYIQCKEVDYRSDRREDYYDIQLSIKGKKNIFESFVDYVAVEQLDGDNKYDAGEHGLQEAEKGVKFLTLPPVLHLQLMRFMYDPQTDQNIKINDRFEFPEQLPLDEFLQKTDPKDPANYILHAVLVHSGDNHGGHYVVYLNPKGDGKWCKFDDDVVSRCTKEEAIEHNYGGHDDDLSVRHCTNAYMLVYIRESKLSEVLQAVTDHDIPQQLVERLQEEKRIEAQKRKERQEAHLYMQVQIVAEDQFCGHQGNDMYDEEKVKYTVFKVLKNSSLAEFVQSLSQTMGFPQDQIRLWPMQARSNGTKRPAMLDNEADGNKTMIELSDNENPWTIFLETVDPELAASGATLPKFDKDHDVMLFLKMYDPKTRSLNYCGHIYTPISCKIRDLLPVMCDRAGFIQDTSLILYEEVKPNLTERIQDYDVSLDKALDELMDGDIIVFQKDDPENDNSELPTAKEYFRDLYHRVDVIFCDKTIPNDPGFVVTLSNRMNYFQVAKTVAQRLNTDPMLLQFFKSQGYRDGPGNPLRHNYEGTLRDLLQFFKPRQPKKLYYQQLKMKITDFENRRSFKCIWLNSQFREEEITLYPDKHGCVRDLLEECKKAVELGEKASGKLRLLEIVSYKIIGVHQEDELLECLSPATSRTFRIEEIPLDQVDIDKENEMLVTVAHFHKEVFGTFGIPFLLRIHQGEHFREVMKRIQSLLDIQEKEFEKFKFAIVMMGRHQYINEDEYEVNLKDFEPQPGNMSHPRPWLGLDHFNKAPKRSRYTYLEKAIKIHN
A general note: Polarisation of emitted light reports the rotation of a fluorescent probe.

Setting [1] is: Table 4, biochemical assay, read-out: USP7 IC50.
The mark [2] stands for this setting: USP7 IC50, Table 4, biochemical assay.

As to `CC1(C(=O)N2CCC(O)(Cn3cnc4c(cc(Cl)n4-c4cccc(C5CC5)c4)c3=O)CC2)CC1` [Example 218, 6-Chloro-7-(3-cyclopropylphenyl)-3-((4-hydroxy-1-(1-methylcyclopropanecarbonyl)piperidin-4-yl)methyl)-3H-pyrrolo[2,3-d]pyrimidin-4(7H)-one], the half-inhibitory concentration (IC50) under setting [1] was under 250 nM.
On the same count and under the same terms, with `Cn1nc2c(=O)n(CC3(O)CCN(C(=O)C[C@H](c4cc(F)cc(F)c4)C(F)(F)F)CC3)cnc2c1-c1ccc(CN)cc1` [Example 84, (R)-3-(4-(Aminomethyl)phenyl)-6-((1-(3-(3,5-difluorophenyl)-4,4,4-trifluorobutanoyl)-4-hydroxypiperidin-4-yl)methyl)-2-methyl-2H-pyrazolo[4,3-d]pyrimidin-7(6H)-one] the figure was 1000 to 200000 nM; with `C[C@H](CC(=O)N1CCC(O)(Cn2cnc(N3CCN(C)C(=O)C3)cc2=O)CC1)c1ccccc1` [Example 168, (R)-3-((4-hydroxy-1-(3-phenylbutanoyl)piperidin-4-yl)methyl)-6-(4-methyl-3-oxopiperazin-1-yl)pyrimidin-4(3H)-one], 1000 to 200000 nM; with `Cn1nccc1-c1cccc(-n2c(Cl)cc3c(=O)n(CC4(O)CCN(C(=O)c5cnc(C6CC6)o5)CC4)cnc32)c1` [Example 210, 6-Chloro-3-((1-(2-cyclopropyloxazole-5-carbonyl)-4-hydroxypiperidin-4-yl)methyl)-7-(3-(1-methyl-1H-pyrazol-5-yl)phenyl)-3H-pyrrolo[2,3-d]pyrimidin-4(7H)-one], 250 to 999 nM.
Still for that read-out and setting: with `Cn1nc2c(=O)n(CC3(O)CCN(C(=O)C[C@H](c4ccccc4)C(F)(F)F)CC3)cnc2c1-c1ccc(C2(N)CC2)cc1` [Example 124, (R)-3-(4-(1-Aminocyclopropyl)phenyl)-6-((4-hydroxy-1-(4,4,4-trifluoro-3-phenylbutanoyl)piperidin-4-yl)methyl)-2-methyl-2H-pyrazolo[4,3-d]pyrimidin-7(6H)-one] the figure was under 250 nM; with `C[C@H](CC(=O)N1CCC(O)(C(O)c2cnc3c(-c4ccccc4)cccn3c2=O)CC1)c1ccccc1` (stereo partly drawn) [Example 105, 3-(Hydroxy(4-hydroxy-1-((R)-3-phenylbutanoyl)piperidin-4-yl)methyl)-9-phenyl-4H-pyrido[1,2-a]pyrimidin-4-one], 1000 to 200000 nM.
With `C[C@H](CC(=O)N1CCC(O)(Cn2cnc(N(CCN3CCCC3)c3ccccc3)cc2=O)CC1)c1ccccc1` [Example 121, (R)-3-((4-Hydroxy-1-(3-phenylbutanoyl)piperidin-4-yl)methyl)-6-(phenyl(2-(pyrrolidin-1-yl)ethyl)amino)pyrimidin-4(3H)-one, Formic Acid], under setting [1], the 50% inhibitory concentration (IC50) is 1000 to 200000 nM.
Still for that read-out and setting: with `Cn1nc2c(=O)n(CC3(O)CCN(C(=O)CCc4ccccc4)CC3)cnc2c1C(F)(F)F` [Example 95, 6-((4-Hydroxy-1-(3-phenylpropanoyl)piperidin-4-yl)methyl)-2-methyl-3-(trifluoromethyl)-2H-pyrazolo[4,3-d]pyrimidin-7(6H)-one] the figure was 1000 to 200000 nM; with `C[C@H](CC(=O)N1CCC(O)(Cn2cnc3c(ncn3-c3ccccc3)c2=O)CC1)c1ccccc1` [Example 17, (R)-1-((4-Hydroxy-1-(3-phenylbutanol)piperidin-4-yl)methyl)-9-phenyl-1H-purin-6(9H)-one], under 250 nM.
On the same count and under the same terms, with `C[C@H](CC(=O)N1CCC(O)(Cn2cnc3c(-c4ccccc4)cnn3c2=O)CC1)c1ccccc1` [Example 139, (R)-3-((4-Hydroxy-1-(3-phenylbutanoyl)piperidin-4-yl)methyl)-8-phenylpyrazolo[1,5-a][1,3,5]triazin-4(3H)-one] the figure was under 250 nM; with `Cn1nc2c(=O)n(CC3(O)CCN(C(=O)CCC4CCC4)CC3)cnc2c1-c1ccc(CN)cc1` [Example 138, 3-(4-(Aminomethyl)phenyl)-6-((1-(3-cyclobutylpropanoyl)-4-hydroxypiperidin-4-yl)methyl)-2-methyl-2H-pyrazolo[4,3-d]pyrimidin-7(6H)-one], 250 to 999 nM.
The same measure, in the same setting: with `C[C@H](CC(=O)N1CCC(O)(Cn2cnc(/C=C/CN3CC[C@@H](N)C3)cc2=O)CC1)c1ccccc1` [Example 55, 6-((E)-3-((R)-3-Aminopyrrolidin-1-yl)prop-1-en-1-yl)-3-((4-hydroxy-1-((R)-3-phenylbutanoyl)piperidin-4-yl)methyl)pyrimidin-4(3H)-one, Formic Acid] the figure was 1000 to 200000 nM; with `Cn1nc2c(=O)n(CC3(O)CCN(C(=O)C[C@H](c4ccccc4)C(F)(F)F)CC3)cnc2c1-c1ccc(CN)c(F)c1` [Example 82, (R)-3-(4-(Aminomethyl)-3-fluorophenyl)-6-((4-hydroxy-1-(4,4,4-trifluoro-3-phenylbutanoyl)piperidin-4-yl)methyl)-2-methyl-2H-pyrazolo[4,3-d]pyrimidin-7(6H)-one], under 250 nM.
For `C[C@H](CC(=O)N1CCC(O)(Cn2cnc(NCCN3Cc4cccc(F)c4C3)cc2=O)CC1)c1ccccc1` [Example 86, (R)-6-((2-(4-Fluoroisoindolin-2-yl)ethyl)amino)-3-((4-hydroxy-1-(3-phenylbutanoyl)piperidin-4-yl)methyl)pyrimidin-4(3H)-one, Formic Acid], under setting [2], the concentration for half-maximal inhibition (IC50) lay in the range of 250 to 999 nM.
With `C[C@H](CC(=O)N1CCC(O)(Cn2cnc(N3CCC(N4CCOCC4)C3)cc2=O)CC1)c1ccccc1` (stereo partly drawn) [Example 149, 3-((4-hydroxy-1-((R)-3-phenylbutanoyl)piperidin-4-yl)methyl)-6-(3-morpholinopyrrolidin-1-yl)pyrimidin-4(3H)-one], under setting [1], the IC50 is 1000 to 200000 nM.
For the compound `CC(C)c1cc(=O)n(CC2(O)CCN(C(=O)C[C@@H](C)c3ccccc3)CC2)cn1` [Example 81, (R)-3-((4-Hydroxy-1-(3-phenylbutanoyl)piperidin-4-yl)methyl)-6-isopropylpyrimidin-4(3H)-one], under setting [1], the IC50 lay within 1000 to 200000 nM.
Still for that read-out and setting: with `C[C@H](CC(=O)N1CCC(O)(Cn2cnc(N3CCC(C)(O)C3)cc2=O)CC1)c1ccccc1` (stereo partly drawn) [Example 150, 3-((4-hydroxy-1-((R)-3-phenylbutanoyl)piperidin-4-yl)methyl)-6-(3-hydroxy-3-methylpyrrolidin-1-yl)pyrimidin-4(3H)-one] the figure was 1000 to 200000 nM.
Still for that read-out and setting: with `C=C(C)[C@H](C)CC(=O)N1CCC(O)(Cn2cnc3c(-c4ccccc4)n(C)nc3c2=O)CC1` [Example 35, (R)-6-((1-(3,4-Dimethylpent-4-enoyl)-4-hydroxypiperidin-4-yl)methyl)-2-methyl-3-phenyl-2H-pyrazolo[4,3-d]pyrimidin-7(6H)-one] the figure was 250 to 999 nM; with `Cn1c(Cl)cc2c(=O)n(CC3(O)CCN(C(=O)C4(C)CC4)CC3)cnc21` [Example 209, 6-Chloro-3-((4-hydroxy-1-(1-methylcyclopropanecarbonyl)piperidin-4-yl)methyl)-7-methyl-3H-pyrrolo[2,3-d]pyrimidin-4(7H)-one], 1000 to 200000 nM; with `Cn1nc2c(=O)n(CC3(O)CCN(C(=O)C[C@H](c4ccccc4)C(F)(F)F)CC3)cnc2c1-c1ccc([C@H](N)C(F)F)cc1` [Example 122, 3-(4-((S)-1-Amino-2,2-difluoroethyl)phenyl)-6-((4-hydroxy-1-((R)-4,4,4-trifluoro-3-phenylbutanoyl)piperidin-4-yl)methyl)-2-methyl-2H-pyrazolo[4,3-d]pyrimidin-7(6H)-one], under 250 nM.
The same measure, in the same setting: with `C[C@H](CC(=O)N1CCC(O)(Cn2cnc(N3CCN(C)CC3)cc2=O)CC1)c1ccccc1` [Example 8, (R)-3-((4-Hydroxy-1-(3-phenylbutanoyl)piperidin-4-yl)methyl)-6-(4-methylpiperazin-1-yl)pyrimidin-4(3H)-one] the figure was 1000 to 200000 nM.
Take `Cc1c(Cl)ncn(CC2(O)CCN(C(=O)C[C@@H](C)c3ccccc3)CC2)c1=O` [Example 44, (R)-6-Chloro-3-((4-hydroxy-1-(3-phenylbutanoyl)piperidin-4-yl)methyl)-5-methylpyrimidin-4(3H)-one]: the half-inhibitory concentration (IC50) under setting [1] is 1000 to 200000 nM.
On to `CC(C)Cn1cc(-c2cc(=O)n(CC3(O)CCN(C(=O)C[C@@H](C)c4ccccc4)CC3)cn2)cn1` [Example 41, (R)-3-((4-Hydroxy-1-(3-phenylbutanoyl)piperidin-4-yl)methyl)-6-(1-isobutyl-1H-pyrazol-4-yl)pyrimidin-4(3H)-one], for which, under setting [2], the IC50 is 250 to 999 nM.
Regarding `CC1(C(=O)N2CCC(O)(Cn3cnc4c(cc(Br)n4-c4ccccc4)c3=O)CC2)CC1` [Example 223, 6-Bromo-3-((4-hydroxy-1-(1-methylcyclopropanecarbonyl)piperidin-4-yl)methyl)-7-phenyl-3H-pyrrolo[2,3-d]pyrimidin-4(7H)-one], the IC50 under setting [1] is under 250 nM.
The same measure, in the same setting: with `O=C(C[C@H](c1ccccc1)C(F)F)N1CCC(O)(Cn2cnc3c(ncn3-c3ccccc3)c2=O)CC1` [Example 129, (R)-1-((1-(4,4-Difluoro-3-phenylbutanoyl)-4-hydroxypiperidin-4-yl)methyl)-9-phenyl-1H-purin-6(9H)-one] the figure was under 250 nM; with `C[C@H](CC(=O)N1CCC(O)(Cn2cnc(N3CCOC(C)(C(=O)N(C)C)C3)cc2=O)CC1)c1ccccc1` (stereo partly drawn) [Example 148, 4-(1-((4-hydroxy-1-((R)-3-phenylbutanoyl)piperidin-4-yl)methyl)-6-oxo-1,6-dihydropyrimidin-4-yl)-N,N,2-trimethylmorpholine-2-carboxamide], 1000 to 200000 nM.
On the same count and under the same terms, with `CC1(C(=O)N2CCC(O)(Cn3cnc4c(cc(Cl)n4-c4cccc(N5CCOCC5)c4)c3=O)CC2)CC1` [Example 226, 6-Chloro-3-((4-hydroxy-1-(1-methylcyclopropanecarbonyl)piperidin-4-yl)methyl)-7-(3-morpholinophenyl)-3H-pyrrolo[2,3-d]pyrimidin-4(7H)-one] the figure was under 250 nM.
Still for that read-out and setting: with `Cn1nc2c(=O)n(CC3(O)CCN(C(=O)c4cnco4)CC3)cnc2c1-c1ccccc1` [Example 192, 6-((4-Hydroxy-1-(oxazole-5-carbonyl)piperidin-4-yl)methyl)-2-methyl-3-phenyl-2H-pyrazolo[4,3-d]pyrimidin-7(6H)-one] the figure was 1000 to 200000 nM.

Usually IC50 stands for the concentration that gives 50% inhibition.
